Experimental data reported in patent US6251903A, “Alkyl, azido, alkoxy, and fluoro-substituted and fused quinoxalinediones and the use thereof as glycine receptor antagonist” (priority 2000, dated 2001).
Entries after “also recorded” stand apart in the source; their conditions may differ.

What was measured:
rats = test: rat model of permanent focal cerebral ischemia, continuous intravenous infusion; assay type: in vivo, male Sprague-Dawley rats
Protocol: Male Sprague-Dawley rats (290-320 g) were […] and maintained under anesthesia with ±2% of halothane. […] The common carotid arteries (CCA) were isolated, and a loose silk ligature Was placed around each CCA. A vertical skin incision was made between the left orbit and the auditory canal, posterior part of zygoma removed and small opening (2.0/2.5 mm) drilled dorsorostrally to the foramen ovale under constant saline irrigation. The dura was opened with a microsurgical hook and the brain gently retracted with a fine spatula to expose the bifurcation of the internal carotid artery and the middle cerebral artery. The ipsilateral CCA was ligated and the MCA coagulated from its origin to the olfactory tract Two hours after MCA occlusion, the clip from the contralateral CCA was removed.
NDMQX was dissolved in 0.1 M L-arginine and 5% glucose and infused as a slow 10 mg/kg i.v. bolus (immediately after MCA occlusion) followed by 7 mg/kg/h infusion for 22 hours.
Brains were sliced into 2 mm blocks and stained with tetrazolium red (2,3,5-triphenyl tetrazolium chloride). The areas of brain damage were assessed using an image analyzer (Image-1, Universal Imaging Corporation, PA) to determine the volume of cortical and subcortical infarction by integration of areas and the distance between each level.
For the drug administration, the NMCQX was dissolved in 0.05 Tris and 5% glucose. It was infused as a slow 2 mg/kg i.v. bolus (immediately after MCA occlusion) followed by 1.4 mg/kg/h infusion for 22 hours.

glycine binding site = glycine binding site (Rattus norvegicus, UniProt P35439); test: affinity for the glycine binding site / glycine/NMDA receptor (Ki; method not stated)
Text: (§1) The binding affinities of quinoxaline-2,3-diones at NMDA receptor glycine sites also were estimated by electrophysiological assays with either cloned rat NMDA receptors expressed in Xenopus oocytes, or non-NMDA receptors expressed in oocytes by whole rat brain poly(A)^+ RNA. […] For NMDA receptors Ki values were approximated by averaging values at three subtype combinations (NR1A/NR2A, NR1A/NR2B, and NR1A/NR2C).

mice [1] = test: anticonvulsant activity in maximum electroshock seizure (MES) experiments in mice; assay type: in vivo, male Swiss/Webster mice; details: route not stated
Protocol: The seizure stimulus parameters were: 50 mA, 60 Hz, rectangular pulse, width 0.8 msec, duration 200 msec. Tonic hind limb extension observed after application of the electrical stimulus was recorded as occurrence of seizure. The drug was applied i.v. as an aqueous Tris (Tromethamine) solution.

mice [2] = test: effect of chronic NDMQX on morphine antinociception in the formalin test; assay type: in vivo, male Swiss Webster mice; details: 40 mg/kg i.p., 8 days
mice [3] = test: morphine tolerance in the formalin test (8 days chronic); assay type: in vivo, male Swiss Webster mice
Protocol: A modification of a previously described method was used (Hunskaar et al., J. Neurosci. Meth. 14:69-76 (1985)). Briefly, mice were placed in Plexiglas jars for at least 1 hr for accommodation to the experimental condition. Formalin (20 μl of 5% formaldehyde solution in saline) was injected into the dorsal surface of the right hind paw using a microsyringe (Hamilton Co., Reno, Nev.) with a 27-gauge needle. Mice were then transferred to the Plexiglas jars and immediately observed for licking or biting of the injected paw for 1 hr. The amount of time that each mouse spent licking or biting the injected paw was recorded for every 5-min period for a 1 hr observation period.
[…] Mice were immediately, within a minute, injected with either saline or morphine (20 mg/kg, s.c.). On day 9, mice were weighed and after a 1-hr accommodation period-injected with morphine (4 mg/kg, s.c.). Thirty min later, all mice were tested in the formalin test (see above).

mice [4] = test: MES test with i.p. NMCQX or NDMQX (Example 51); assay type: in vivo, Swiss Webster mice; details: NMCQX 1.25-7.50 mg/kg, NDMQX 5.00-15.00 mg/kg
Protocol: In the MES test, mice were injected i.p. with NMCQX (1.25-7.50 mg/kg) or NDMQX (5.00-15.00 mg/kg). Control mice were injected with Tris (0.05 M) or Arginine (0.1 M), respectively. Seizures were then induced by applying a rectangular pulse, 50 mA, 60 pulses/sec, 0.8 msec pulse width, and 0.2 sec train length, at the time of the drugs' peak effect.

[5] = target: NMDA receptor glycine sites; test: electrophysiological assay, cloned rat NMDA receptors expressed in Xenopus oocytes; assay type: cell-based; details: Table II; from electrophysiology using Xenopus oocytes
Text: as §1

mice [6] = test: formalin test for pain in Swiss Webster mice; assay type: in vivo, male Swiss Webster mice; details: for time spent licking, early phase / time spent licking, late phase (15-50 min): mean ± s.e.m.
Protocol: The effects of the glycine receptor antagonists of the present invention on chronic pain can be evaluated as follows. Male Swiss/Webster mice weighing 25-35 grams are housed five to a cage with free access to food and water and are maintained on a 12 hour light cycle (light onset at 0800h). The glycine receptor antagonist is dissolved in DMSO at a concentration of 140 and 5-40 mg/mL, respectively. DMSO is used as vehicle control. All drugs=are injected intraperitoneally (1 μl/g). […] Mice are observed in a plexiglass cylinder, 25 cm in diameter and 30 cm in height. The plantar surface of one hindpaw is injected subcutaneously with 20 μl of 5% formalin. The degree of pain is determined by measuring the amount of time the animal spends licking the formalin-injected paw during the following time intervals: 0-5' (early phase); 5'-10', 10'-15' and 15'-50' (late phase). To test whether the glycine/excitatory amino acid antagonists prevent chronic pain in the test animals, vehicle (DMSO) or drugs dissolved in vehicle at doses of 1 mg/kg to 40 mg/kg are injected intraperitoneally 30 minutes prior to the formalin injection. For each dose of drug or vehicle control at least six animals are used.
Briefly, after a 60 minute accommodation period in plexiglass jars, mice were weighed and injected intraperitoneally (i.p.) with NDMQX (1-20 mg/kg; N=6-10 mice/dose). Controls were injected with DMSO (1 mL/kg, i.p.). Thirty min later, mice were injected with formalin (20 μl of 5% solution) just under the skin of the right hind paw, transferred to the plexiglass jars, and immediately observed for licking or biting of the injected paw for 1 hr. The amount of time that each mouse spent licking the injected paw was measured at 0-5 min (early phase) and 15-50 min (late phase).
In the formalin test, following a 1 hr accommodation period, mice were injected i.p. with NMCQX (1.00-10.00 mg/kg, N=7-13 mice/dose) or NDMQX (0.5-20.00 mg/kg, N=8-9 mice/dose). Control mice were injected with Tris (0.5 M) or Bis-Tris (0.2 M), respectively. Mice were then injected with formalin. […] The amount of time that each mouse spent licking and/or biting the injected paw was recorded for 1 hr.

[7] = penetration of the blood/brain barrier, access to the central nervous system; assay type: in vivo; details: inferred from Ki and MES ED50

Compound: Cc1cc2nc(O)c(O)nc2c([N+](=O)[O-])c1C [NDMQX, 6,7-Dimethyl-5-nitro-1,4-dihydroquinoxaline-2,3-dione]
- reduction in cortical infarct volume (rats; 10 mg/kg i.v. bolus then 7 mg/kg/h for 22 hours, p<0.05): 71%
- neuroprotection (rats; rat focal ischemia): significant neuroprotection
- Ki (glycine binding site): 43 nM
- times less active than 6,7-dichloro-5-nitro-1,4-dihydroquinoxaline-2,3-dione at the glycine/NMDA receptor (glycine binding site; from Ki): about 10 times
- ED50 as an anticonvulsant in the MES experiment in mice (mice [1]): 4 to 5 mg/kg
- effect on morphine-induced antinociception (mice [2]): did not alter the antinociceptive effect of morphine; also recorded: not due to potentiation of morphine-induced antinociception
- effect on morphine tolerance (mice [3]; 2 mg/kg): no effect on morphine tolerance
- effect on morphine tolerance (mice [3]; 20 mg/kg): attenuated
- effect on morphine tolerance (mice [3]; 40 mg/kg): completely abolished
- morphine tolerance (words, overall) (mice [3]; 8 days, early and late phases): Tolerance did not develop in mice treated with NDMQX followed by morphine; also recorded: blocked morphine tolerance in both phases of the formalin test
- protection from electroshock seizures (mice [4]): dose-dependently protected mice from generalized clonic-tonic seizures
- Ki [5]: 43 nM
- time spent licking, early phase (mice [6]; 1.0 mg/kg i.p.): 72.57 ± 14.2 sec per 5 min period
- time spent licking, late phase (15-50 min) (mice [6]; 1.0 mg/kg i.p.): 37.59 ± 5.37 sec per 5 min period
- time spent licking, early phase (mice [6]; 2.5 mg/kg i.p.): 78.50 ± 10.0 sec per 5 min period
- time spent licking, late phase (15-50 min) (mice [6]; 2.5 mg/kg i.p.): 26.38 ± 5.43 sec per 5 min period
- time spent licking, early phase (mice [6]; 5 mg/kg i.p.): 32.83 ± 8.28 sec per 5 min period
- time spent licking, late phase (15-50 min) (mice [6]; 5 mg/kg i.p.): 10.24 ± 2.66 sec per 5 min period
- time spent licking, early phase (mice [6]; 10 mg/kg i.p.): 29.17 ± 14.9 sec per 5 min period
- time spent licking, late phase (15-50 min) (mice [6]; 10 mg/kg i.p.): 10.19 ± 2.44 sec per 5 min period
- time spent licking, early phase (mice [6]; 15 mg/kg i.p.): 6.83 ± 1.85 sec per 5 min period
- time spent licking, late phase (15-50 min) (mice [6]; 15 mg/kg i.p.): 3.19 ± 1.37 sec per 5 min period
- time spent licking, early phase (mice [6]; 20 mg/kg i.p.): 4.33 ± 2.85 sec per 5 min period
- time spent licking, late phase (15-50 min) (mice [6]; 20 mg/kg i.p.): 0.05 ± 0.05 sec per 5 min period
- antinociceptive effect in the formalin test (mice [6]; i.p., early and late phases): attenuated the mean time spent licking in a dose-dependent manner in both phases; also recorded: significant analgesic effect in both phases; also recorded: dose-dependent antinociceptive effect in both phases
- times better in crossing the blood brain barrier than 6,7-dichloro-5-nitro-1,4-dihydroquinoxaline-2,3-dione [7]: about 10 times
